Tests used:
TLR7 = molecular target: T1, TLR7 (Homo sapiens, UniProt Q9NYK1); test: HEK/293 TLR7 Cell Assay; format: cell-based; conditions: TLR7/NFKb HEK cells, R848 agonist 10 uM final concentration, Steady-Glo readout; read-out: TLR7 potency
T1 construct: expressed in transfected cells; host or cells: HEK/293 cells carrying TLR7 and an NF-kB luciferase reporter
T1 sequence (Q9NYK1 27-1049): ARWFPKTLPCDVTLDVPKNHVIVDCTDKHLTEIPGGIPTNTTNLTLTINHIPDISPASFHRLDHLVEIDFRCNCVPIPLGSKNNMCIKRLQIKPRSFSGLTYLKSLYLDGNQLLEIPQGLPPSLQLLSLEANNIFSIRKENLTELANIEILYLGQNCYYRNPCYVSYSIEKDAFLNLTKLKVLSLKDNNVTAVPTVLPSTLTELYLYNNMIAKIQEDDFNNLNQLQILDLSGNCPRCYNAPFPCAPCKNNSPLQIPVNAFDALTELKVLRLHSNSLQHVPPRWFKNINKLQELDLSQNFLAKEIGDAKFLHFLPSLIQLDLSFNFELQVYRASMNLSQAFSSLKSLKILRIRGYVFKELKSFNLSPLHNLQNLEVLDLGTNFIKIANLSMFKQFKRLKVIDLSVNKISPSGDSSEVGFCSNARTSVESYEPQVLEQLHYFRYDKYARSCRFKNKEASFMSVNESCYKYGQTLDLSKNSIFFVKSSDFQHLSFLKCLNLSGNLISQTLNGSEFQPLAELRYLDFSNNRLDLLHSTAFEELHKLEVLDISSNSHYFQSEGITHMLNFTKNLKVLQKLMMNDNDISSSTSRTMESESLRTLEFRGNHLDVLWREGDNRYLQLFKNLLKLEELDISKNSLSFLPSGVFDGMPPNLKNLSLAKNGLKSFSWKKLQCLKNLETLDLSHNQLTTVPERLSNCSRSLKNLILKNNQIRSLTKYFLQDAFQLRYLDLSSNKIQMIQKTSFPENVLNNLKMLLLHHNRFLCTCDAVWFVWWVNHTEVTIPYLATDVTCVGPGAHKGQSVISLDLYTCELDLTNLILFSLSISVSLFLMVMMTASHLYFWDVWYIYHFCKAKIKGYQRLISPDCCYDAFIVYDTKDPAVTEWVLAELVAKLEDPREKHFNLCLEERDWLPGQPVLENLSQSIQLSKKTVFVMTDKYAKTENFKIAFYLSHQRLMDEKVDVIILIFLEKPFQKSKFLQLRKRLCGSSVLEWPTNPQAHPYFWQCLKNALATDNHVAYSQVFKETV
Summary of the method: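 Compounds added to HEK cells expressing TLR7 with an NFκB reporter 30 min ahead of 10 uM R848 challenge; luciferase signal (Steady-Glo) measured after 5 h, cells having been seeded 24 h earlier at 5000 per well.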

TLR8 = molecular target: T2, TLR8 (Homo sapiens, UniProt Q9NR97); test: HEK/293 TLR8 Cell Assay; format: cell-based; conditions: HEK cells, R848 agonist 30 uM final concentration, Steady-Glo readout; read-out: TLR8 potency
T2 construct: expressed in transfected cells; host or cells: HEK/293 reporter cells (NF-kB luciferase)
T2 sequence (Q9NR97 27-1041): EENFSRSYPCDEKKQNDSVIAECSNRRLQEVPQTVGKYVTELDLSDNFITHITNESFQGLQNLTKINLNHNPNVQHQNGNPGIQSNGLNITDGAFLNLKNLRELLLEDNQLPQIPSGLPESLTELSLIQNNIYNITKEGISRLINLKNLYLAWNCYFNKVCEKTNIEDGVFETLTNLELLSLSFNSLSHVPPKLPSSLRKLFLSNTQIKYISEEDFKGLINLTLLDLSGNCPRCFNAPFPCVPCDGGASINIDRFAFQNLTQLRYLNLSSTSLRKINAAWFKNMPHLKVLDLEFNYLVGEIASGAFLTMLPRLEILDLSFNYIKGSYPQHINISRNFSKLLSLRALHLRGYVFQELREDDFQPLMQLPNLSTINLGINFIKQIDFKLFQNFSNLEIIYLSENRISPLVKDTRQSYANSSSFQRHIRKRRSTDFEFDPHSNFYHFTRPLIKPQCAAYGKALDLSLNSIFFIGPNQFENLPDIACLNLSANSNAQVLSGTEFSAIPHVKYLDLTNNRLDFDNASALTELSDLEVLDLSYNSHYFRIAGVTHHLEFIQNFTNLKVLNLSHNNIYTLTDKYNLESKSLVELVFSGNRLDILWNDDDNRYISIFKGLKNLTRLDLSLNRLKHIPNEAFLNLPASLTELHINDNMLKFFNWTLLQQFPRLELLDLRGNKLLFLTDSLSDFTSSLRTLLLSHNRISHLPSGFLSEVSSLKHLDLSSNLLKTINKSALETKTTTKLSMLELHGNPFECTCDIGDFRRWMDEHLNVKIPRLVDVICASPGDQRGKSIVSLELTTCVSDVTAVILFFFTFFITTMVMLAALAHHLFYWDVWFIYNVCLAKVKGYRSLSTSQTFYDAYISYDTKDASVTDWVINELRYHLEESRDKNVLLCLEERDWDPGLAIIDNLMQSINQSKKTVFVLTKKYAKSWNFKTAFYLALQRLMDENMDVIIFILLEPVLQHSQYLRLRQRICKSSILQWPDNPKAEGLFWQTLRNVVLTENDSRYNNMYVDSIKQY

Structure (SMILES): C[C@@H]1CN(c2ccc(C#N)c3nccnc23)C[C@H](C(=O)N2CC3(C2)CS(=O)(=O)C3)O1 [Example 251, 8-[(2R,6R)-2-(2,2-Dioxo-2lambda6-thia-6-aza-spiro[3.3]heptane-6-carbonyl)-6-methyl-morpholin-4-yl]-quinoxaline-5-carbonitrile]
- IC50 (TLR7): > 150 nM
- IC50 (TLR8): > 150 nM

Structure (SMILES): C[C@@H]1CN(c2cnc(C#N)c3ncccc23)C[C@H](Cn2cc(C(=O)O)cn2)O1 [Example 365, 1-[(2R,6R)-4-(8-Cyano-[1,7]naphthyridin-5-yl)-6-methyl-morpholin-2-ylmethyl]-1H-pyrazole-4-carboxylic acid]
- IC50 (TLR7): < 75 nM
- IC50 (TLR8): < 75 nM

Structure (SMILES): C[C@H]1C[C@@H](NCCN2CCOC2=O)CN(c2ccc(C(F)(F)F)c3ncccc23)C1 [Example 29, 3-{2-[(3R,5S)-5-Methyl-1-(8-trifluoromethyl-quinolin-5-yl)-piperidin-3-ylamino]-ethyl}-oxazolidin-2-one]
- IC50 (TLR7): < 75 nM
- IC50 (TLR8): < 75 nM

Structure (SMILES): C[C@@H]1CN(c2ccc(C#N)c3nccnc23)C[C@H](CN2CCC(O)CC2)O1 [Example 219, 8-[(2S,6R)-2-(4-Hydroxy-piperidin-1-ylmethyl)-6-methyl-morpholin-4-yl]-quinoxaline-5-carbonitrile]
- IC50 (TLR7): 75 to 150 nM
- IC50 (TLR8): > 150 nM

Structure (SMILES): N#Cc1ccc(N2C[C@@H](C(=O)NC[C@H](O)CO)O[C@@H](C(F)(F)F)C2)c2nccnc12 (single isomer, unassigned) [Example 281]
- IC50 (TLR7): > 150 nM
- IC50 (TLR8): > 150 nM

Structure (SMILES): C[C@H]1C[C@@H](NCCCS(N)(=O)=O)CN(c2ccc(C#N)c3nccnc23)C1 [Example 34, 3-[(3R,5S)-1-(8-Cyano-quinoxalin-5-yl)-5-methyl-piperidin-3-ylamino]-propane-1-sulfonic acid amide]
- IC50 (TLR7): < 75 nM
- IC50 (TLR8): < 75 nM

Structure (SMILES): C[C@@H]1CN(c2ccc(C#N)c3nccnc23)C[C@H](C(=O)N[C@@H]2CCN(CC3CC3)C2)O1 [Example 323, (2R,6R)-4-(8-Cyano-quinoxalin-5-yl)-6-methyl-morpholine-2-carboxylic acid ((R)-cyclopropylmethyl-pyrrolidin-3-yl)-amide]
- IC50 (TLR7): < 75 nM
- IC50 (TLR8): < 75 nM

Structure (SMILES): CN(C)CCNC(=O)N[C@@H]1C[C@H](C(F)(F)F)CN(c2ccc(C#N)c3nccnc23)C1 [Example 139, 1-[(3R,5S)-1-(8-cyanoquinoxalin-5-yl)-5-(trifluoromethyl)piperidin-3-yl]-3-[2-(dimethylamino)ethyl]urea]
- IC50 (TLR7): 75 to 150 nM
- IC50 (TLR8): 75 to 150 nM

Structure (SMILES): N#Cc1ccc(N2C[C@H](NC(=O)CC3(F)CCNCC3)C[C@H](C(F)(F)F)C2)c2nccnc12 [Example 118, N-[(3R,5S)-1-(8-cyanoquinoxalin-5-yl)-5-(trifluoromethyl)piperidin-3-yl]-2-(4-fluoropiperidin-4-yl)acetamide]
- IC50 (TLR7): < 75 nM
- IC50 (TLR8): < 75 nM

Structure (SMILES): Cc1c(F)cc(N2C[C@@H](C)C[C@@H](NC(=O)[C@@H](N)[C@@H](C)O)C2)c2cccnc12 [Example 134, (2S,3R)-2-Amino-N-[(3R,5S)-1-(7-fluoro-8-methyl-quinolin-5-yl)-5-methyl-piperidin-3-yl]-3-hydroxy-butyramide]
- IC50 (TLR7): 75 to 150 nM
- IC50 (TLR8): 75 to 150 nM

Structure (SMILES): CC(=O)NCCNC(=O)[C@H]1CN(c2ccc(C#N)c3nccnc23)C[C@@H](C)O1 [Example 243, (2R,6R)-4-(8-Cyano-quinoxalin-5-yl)-6-methyl-morpholine-2-carboxylic acid (2-acetylamino-ethyl)-amide]
- IC50 (TLR7): 75 to 150 nM
- IC50 (TLR8): > 150 nM

Structure (SMILES): CCN(CC)C1CCN(C[C@H]2CN(c3ccc(C#N)c4nccnc34)C[C@@H](C)O2)CC1 [Example 217, 8-[(2S,6R)-2-(4-Diethylamino-piperidin-1-ylmethyl)-6-methyl-morpholin-4-yl]-quinoxaline-5-carbonitrile]
- IC50 (TLR7): < 75 nM
- IC50 (TLR8): < 75 nM

Structure (SMILES): C[C@H]1C[C@@H](NCCNS(N)(=O)=O)CN(c2ccc(C(F)(F)F)c3ncccc23)C1 [Example 19]
- IC50 (TLR7): 75 to 150 nM
- IC50 (TLR8): < 75 nM

From patent US20210300940A1 (Merck Patent GmbH, priority 2018, published 2021)
